Source: patent EP0595557A1, “New substituted azetidinones as anti-inflammatory and antidegenerative agents” (MERCK & CO. INC., priority 1992, dated 1994)

Biological target: T1, Human Polymorphonuclear Leukocyte Elastase (Homo sapiens, UniProt P08246)
T1 construct: Crude extract of human polymorphonuclear leukocytes (PMN) containing elastase activity; from tissue; host or cells: human polymorphonuclear leukocytes (crude extract)
T1 sequence (P08246 30-267): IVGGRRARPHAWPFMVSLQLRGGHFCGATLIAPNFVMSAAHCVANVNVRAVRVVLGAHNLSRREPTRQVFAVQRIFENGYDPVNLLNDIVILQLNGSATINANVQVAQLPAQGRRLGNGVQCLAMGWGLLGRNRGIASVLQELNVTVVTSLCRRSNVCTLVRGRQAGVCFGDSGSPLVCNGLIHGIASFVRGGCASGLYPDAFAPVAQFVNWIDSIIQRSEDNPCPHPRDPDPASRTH
Test: Enzyme assay for inhibition of human polymorphonuclear leukocyte elastase via hydrolysis of Boc-AAPAN or Boc-AAPVN
Format: biochemical
Conditions: pH 7.5, second order rate constant for inactivation of the enzyme, expressed to the nearest thousand, read-out: Kobs/[I]
In short: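 Crude human PMN extract as enzyme source, with 0.2 mM Boc-AAPAN in 0.05M TES buffer pH 7.5. Inhibitors in DMSO were added to substrate before the extract, and rate was followed as ΔOD/min at 410 mµ. Values are kobs/I, the second-order inactivation rate constant (per mole per second).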

kinact/KI [M⁻¹ s⁻¹]	SMILES
1.53e+06	CCC[C@@H](NC(=O)N1C(=O)C(CC)(CC)[C@@H]1Oc1ccc(C(=O)N(C)CCN2CC(C)OC(C)C2)cc1)c1ccc(C)cc1 (stereo partly shown) [Compound 196]
1.64e+06	CCC[C@@H](NC(=O)N1C(=O)C(CC)(CC)[C@@H]1Oc1ccc(C(N)=O)cc1)c1ccc(C)cc1 [Compound 197]
1.82e+06	CCC[C@@H](NC(=O)N1C(=O)C(CC)(CC)[C@@H]1Oc1ccc(C(=O)NC)cc1)c1ccc(C)cc1 [Compound 198]
2.38e+06	CCC[C@@H](NC(=O)N1C(=O)C(CC)(CC)[C@@H]1Oc1ccc(C(=O)N2CCOCC2)cc1)c1ccc(C)cc1 [Compound 199]
1.84e+06	CCC[C@@H](NC(=O)N1C(=O)C(CC)(CC)[C@@H]1Oc1ccc(C(=O)N2C[C@@H](C)O[C@@H](C)C2)cc1)c1ccc(C)cc1 [Compound 200]
2.46e+06	CCCCNC(=O)c1ccc(OC2N(C(=O)NC(CCC)c3ccc(C)cc3)C(=O)C2(CC)CC)cc1 (stereo not shown) [Compound 201]
1.76e+06	CCC[C@@H](NC(=O)N1C(=O)C(CC)(CC)[C@@H]1Oc1ccc(C(=O)N(C)CCN(C)C(=NC#N)Nc2ccccc2)cc1)c1ccc(C)cc1 [Compound 202]
1.26e+06	CCC[C@@H](NC(=O)N1C(=O)C(CC)(CC)[C@@H]1Oc1ccc(C(=O)N(C)CCN(C)Cc2cccc(F)c2)cc1)c1ccc(C)cc1 [Compound 203]
1.59e+06	CCC[C@@H](NC(=O)N1C(=O)C(CC)(CC)[C@@H]1Oc1ccc(C(=O)N(C)CCN(C)Cc2ccccc2Cl)cc1)c1ccc(C)cc1 [Compound 204]
1.91e+06	CCC[C@@H](NC(=O)N1C(=O)C(CC)(CC)[C@@H]1Oc1ccc(C(=O)N(C)CCN(C)Cc2cccc(OC)c2)cc1)c1ccc(C)cc1 [Compound 205]
1.74e+06	CCC[C@@H](NC(=O)N1C(=O)C(CC)(CC)[C@@H]1Oc1ccc(C(=O)N(C)CCN(C)Cc2cc(OC)cc(OC)c2)cc1)c1ccc(C)cc1 [Compound 206]
2.7e+06	CCC[C@@H](NC(=O)N1C(=O)C(CC)(CC)[C@@H]1Oc1ccc(C(=O)N2CCc3cc(OC)c(OC)cc3C2)cc1)c1ccc(C)cc1 [Compound 207]
1.95e+06	CCC[C@@H](NC(=O)N1C(=O)C(CC)(CC)[C@@H]1Oc1ccc(C(=O)N(C)C2CCN(Cc3ccccc3)CC2)cc1)c1ccc(C)cc1 [Compound 208]
929000	CCC[C@@H](NC(=O)N1C(=O)C(CC)(CC)[C@@H]1Oc1ccc(C(=O)NCCCC[C@H](N)C(=O)O)cc1)c1ccc(C)cc1 [Compound 209]
2.13e+06	CCC[C@@H](NC(=O)N1C(=O)C(CC)(CC)[C@@H]1Oc1ccc(C(=O)N(C)CCN(C)C2C3CC4CC(C3)CC2C4)cc1)c1ccc(C)cc1 (stereo partly shown) [Compound 210]
85000	CCC[C@@H](NC(=O)N1C(=O)C(CC)(CC)[C@@H]1Oc1ccc(C(=O)N(C)C2CCNCC2)cc1)c1ccc(C)cc1 [Compound 211]
860000	CCC[C@@H](NC(=O)N1C(=O)C(CC)(CC)[C@@H]1Oc1ccc(C(=O)N2CC3CC2CN3C)cc1)c1ccc(C)cc1 (stereo partly shown) [Compound 212]
984000	CCC[C@@H](NC(=O)N1C(=O)C(CC)(CC)[C@@H]1Oc1ccc(C(=O)N(C)CC(=O)O)cc1)c1ccc(C)cc1 [Compound 213]
1.1e+06	CCC[C@@H](NC(=O)N1C(=O)C(CC)(CC)[C@@H]1Oc1ccc(C(=O)N(C)CCCN(C)CC)cc1)c1ccc(C)cc1 [Compound 214]
1.28e+06	CCC[C@@H](NC(=O)N1C(=O)C(CC)(CC)[C@@H]1Oc1ccc(C(=O)N(C)C2CCN(C)CC2)cc1)c1ccc(C)cc1 [Compound 215]
1.31e+06	CCC[C@@H](NC(=O)N1C(=O)C(CC)(CC)[C@@H]1Oc1ccc(C(=O)N(C)C2CCN(CCC)CC2)cc1)c1ccc(C)cc1 [Compound 216]
1.42e+06	CCC[C@@H](NC(=O)N1C(=O)C(CC)(CC)[C@@H]1Oc1ccc(C(=O)N(C)C2CCN(CC)CC2)cc1)c1ccc(C)cc1 [Compound 217]
2.12e+06	CCC[C@@H](NC(=O)N1C(=O)C(CC)(CC)[C@@H]1Oc1ccc(C(=O)N(C)CC(C)N(C)Cc2ccccc2)cc1)c1ccc(C)cc1 (stereo partly shown) [Compound 218]
1.59e+06	CCC[C@@H](NC(=O)N1C(=O)C(CC)(CC)[C@@H]1Oc1ccc(C(=O)N(C)CC(C)N(C)C)cc1)c1ccc(C)cc1 (stereo partly shown) [Compound 219]
1.87e+06	CCC[C@@H](NC(=O)N1C(=O)C(CC)(CC)[C@@H]1Oc1ccc(C(=O)N(C)CCN(C)C2CC3CCC2C3)cc1)c1ccc(C)cc1 (stereo partly shown) [Compound 220]
3.01e+06	CCC[C@@H](NC(=O)N1C(=O)C(CC)(CC)[C@@H]1Oc1ccc(C(=O)N(C)CCNC2C3CC4CC(C3)CC2C4)cc1)c1ccc(C)cc1 (stereo partly shown) [Compound 221]

kinact/KI [M⁻¹ s⁻¹]	SMILES
2.29e+06	CCC[C@@H](NC(=O)N1C(=O)C(CC)(CC)[C@@H]1Oc1ccc(C(=O)N(C)CCN(C)C2CCC3CC2C3(C)C)cc1)c1ccc(C)cc1 (stereo partly shown) [Compound 222]
2.58e+06	CCC[C@@H](NC(=O)N1C(=O)C(CC)(CC)[C@@H]1Oc1ccc(C(=O)N(C)CCN(C)C2CCC3CCC2C3)cc1)c1ccc(C)cc1 (stereo partly shown) [Compound 223]
1.84e+06	CCC[C@@H](NC(=O)N1C(=O)C(CC)(CC)[C@@H]1Oc1ccc(C(=O)N(C)CCN(C)C2=CCCCC2)cc1)c1ccc(C)cc1 [Compound 225]
1.31e+06	C=CC(C)(C)NCCN(C)C(=O)c1ccc(O[C@@H]2N(C(=O)N[C@H](CCC)c3ccc(C)cc3)C(=O)C2(CC)CC)cc1 [Compound 226]
931000	CCC[C@@H](NC(=O)N1C(=O)C(CC)(CC)[C@@H]1Oc1ccc(C(=O)N2CCC[C@H]2C(N)=O)cc1)c1ccc(C)cc1 [Compound 227]
50000	CCC[C@@H](NC(=O)N1C(=O)C(CC)(CC)[C@@H]1Oc1ccc(C(=O)N2CCCCC2CO)cc1)c1ccc(C)cc1 (stereo partly shown) [Compound 228]
1.34e+06	CCC[C@@H](NC(=O)N1C(=O)C(CC)(CC)[C@@H]1Oc1ccc(C(=O)N2CCC(N(C)C)C2)cc1)c1ccc(C)cc1 (stereo partly shown) [Compound 229]
925000	C=CCN(CCN(C)C(=O)c1ccc(O[C@@H]2N(C(=O)N[C@H](CCC)c3ccc(C)cc3)C(=O)C2(CC)CC)cc1)C(C)(C)C=C [Compound 231]
2.48e+06	CCC[C@@H](NC(=O)N1C(=O)C(CC)(CC)[C@@H]1Oc1ccc(C(=O)N(C)CCN(C)C2CCC(CC)CC2)cc1)c1ccc(C)cc1 (stereo partly shown) [Compound 232]
7.49e+06	CCC[C@@H](NC(=O)N1C(=O)C(CC)(CC)[C@@H]1Oc1ccc(C(=O)N2CCN(c3ccc(F)cc3)CC2)cc1)c1ccc(C)cc1 [Compound 243]
2.45e+06	CCC[C@@H](NC(=O)N1C(=O)C(CC)(CC)[C@@H]1Oc1ccc(C(=O)N2CCN(c3cccc(Cl)c3)CC2)cc1)c1ccc(C)cc1 [Compound 244]
5.28e+06	CCC[C@@H](NC(=O)N1C(=O)C(CC)(CC)[C@@H]1Oc1ccc(C(=O)N2CCN(c3ccccc3)CC2)cc1)c1ccc(C)cc1 [Compound 245]
5.17e+06	CCC[C@@H](NC(=O)N1C(=O)C(CC)(CC)[C@@H]1Oc1ccc(C(=O)N2CCN(Cc3ccccc3)CC2)cc1)c1ccc(C)cc1 [Compound 246]
1.1e+06	CCC[C@@H](NC(=O)N1C(=O)C(CC)(CC)[C@@H]1Oc1ccc(C(=O)N2CCNCC2)cc1)c1ccc(C)cc1 [Compound 247, [S-(R*,S*)]-2-[4-[[(4-Piperazin-1-yl)carbonyl]phenoxy] -((3,3-diethyl-N-[1-(4-methylphenyl)butyl]-4-oxo-1-azetidinecarboxamide]
2.39e+06	CCC[C@@H](NC(=O)N1C(=O)C(CC)(CC)[C@@H]1Oc1ccc(C(=O)N2CCN(C(C)C)CC2)cc1)c1ccc(C)cc1 [Compound 248]
2.48e+06	CCC[C@@H](NC(=O)N1C(=O)C(CC)(CC)[C@@H]1Oc1ccc(C(=O)N2CCN(CC(C)C)CC2)cc1)c1ccc(C)cc1 [Compound 249]
1.57e+06	CCC[C@@H](NC(=O)N1C(=O)C(CC)(CC)[C@@H]1Oc1ccc(C(=O)N2CCN(CC(=O)OCC)CC2)cc1)c1ccc(C)cc1 [Compound 250]
1.95e+06	CCC[C@@H](NC(=O)N1C(=O)C(CC)(CC)[C@@H]1Oc1ccc(C(=O)N2CCN(CC(=O)O)CC2)cc1)c1ccc(C)cc1 [Compound 251]
2.32e+06	CCC[C@@H](NC(=O)N1C(=O)C(CC)(CC)[C@@H]1Oc1ccc(C(=O)N2CCN(CC)CC2)cc1)c1ccc(C)cc1 [Compound 252]
1.77e+06	CCC[C@@H](NC(=O)N1C(=O)C(CC)(CC)[C@@H]1Oc1ccc(C(=O)N2CCN(CCC)CC2)cc1)c1ccc(C)cc1 [Compound 253]
2.14e+06	CCC[C@@H](NC(=O)N1C(=O)C(CC)(CC)[C@@H]1Oc1ccc(C(=O)N2CCN(c3ncccn3)CC2)cc1)c1ccc(C)cc1 [Compound 254]
2.55e+06	CCC[C@@H](NC(=O)N1C(=O)C(CC)(CC)[C@@H]1Oc1ccc(C(=O)N2CCN(CCOC(=O)NC)CC2)cc1)c1ccc(C)cc1 [Compound 255]
2e+06	CCC[C@@H](NC(=O)N1C(=O)C(CC)(CC)[C@@H]1Oc1ccc(C(=O)N2CCN(CCO)CC2)cc1)c1ccc(C)cc1 [Compound 256a, [S-(R*,S*)]-2-[4-[[(4-Hydroxyethyl)piperazin-1-yl]carbonyl]phenoxy]-((3,3-diethyl-N-[1-(methylphenyl)butyl]-4-oxo-1-azetidinecarboxamide]
2.34e+06	CCC[C@@H](NC(=O)N1C(=O)C(CC)(CC)[C@@H]1Oc1ccc(CC(N)=O)cc1)c1ccc2c(c1)OCO2 [Compound 257]
1.78e+06	CCC[C@@H](NC(=O)N1C(=O)C(CC)(CC)[C@@H]1Oc1ccc(CC(=O)N2CCOCC2)cc1)c1ccc2c(c1)OCO2 [Compound 258]

SMILES	kinact/KI [M⁻¹ s⁻¹]
CCC[C@@H](NC(=O)N1C(=O)C(CC)(CC)[C@@H]1Oc1ccc(CC(=O)N(C)CCN(C)C)cc1)c1ccc2c(c1)OCO2 [Compound 259]	2.52e+06
